Measurements taken from US20230279001A1, “IMIDAZO[1,2-A]PYRIDINE COMPOUNDS FOR THE TREATMENT OF AUTOIMMUNE DISEASE” (Hoffmann-La Roche Inc., priority 2020, published 2023).
Where two headings read alike, the source gives them in different places.

How the values were obtained:
hERG channel = hERG channel (Homo sapiens (Human), UniProt Q12809); assay: hERG channel inhibition assay (patch-clamp, CHO cells); format: cell-based; conditions: for IC50 / IC20: CHO hERG cells, whole-cell patch-clamp; for IC20: human, CHO cells stably expressing hERG channels; for hERG IC20/TLR7 IC50 / hERG IC20/TLR8 IC50 / hERG IC20/TLR9 IC50: safety ratio
Chain of hERG channel (Q12809 whole entry): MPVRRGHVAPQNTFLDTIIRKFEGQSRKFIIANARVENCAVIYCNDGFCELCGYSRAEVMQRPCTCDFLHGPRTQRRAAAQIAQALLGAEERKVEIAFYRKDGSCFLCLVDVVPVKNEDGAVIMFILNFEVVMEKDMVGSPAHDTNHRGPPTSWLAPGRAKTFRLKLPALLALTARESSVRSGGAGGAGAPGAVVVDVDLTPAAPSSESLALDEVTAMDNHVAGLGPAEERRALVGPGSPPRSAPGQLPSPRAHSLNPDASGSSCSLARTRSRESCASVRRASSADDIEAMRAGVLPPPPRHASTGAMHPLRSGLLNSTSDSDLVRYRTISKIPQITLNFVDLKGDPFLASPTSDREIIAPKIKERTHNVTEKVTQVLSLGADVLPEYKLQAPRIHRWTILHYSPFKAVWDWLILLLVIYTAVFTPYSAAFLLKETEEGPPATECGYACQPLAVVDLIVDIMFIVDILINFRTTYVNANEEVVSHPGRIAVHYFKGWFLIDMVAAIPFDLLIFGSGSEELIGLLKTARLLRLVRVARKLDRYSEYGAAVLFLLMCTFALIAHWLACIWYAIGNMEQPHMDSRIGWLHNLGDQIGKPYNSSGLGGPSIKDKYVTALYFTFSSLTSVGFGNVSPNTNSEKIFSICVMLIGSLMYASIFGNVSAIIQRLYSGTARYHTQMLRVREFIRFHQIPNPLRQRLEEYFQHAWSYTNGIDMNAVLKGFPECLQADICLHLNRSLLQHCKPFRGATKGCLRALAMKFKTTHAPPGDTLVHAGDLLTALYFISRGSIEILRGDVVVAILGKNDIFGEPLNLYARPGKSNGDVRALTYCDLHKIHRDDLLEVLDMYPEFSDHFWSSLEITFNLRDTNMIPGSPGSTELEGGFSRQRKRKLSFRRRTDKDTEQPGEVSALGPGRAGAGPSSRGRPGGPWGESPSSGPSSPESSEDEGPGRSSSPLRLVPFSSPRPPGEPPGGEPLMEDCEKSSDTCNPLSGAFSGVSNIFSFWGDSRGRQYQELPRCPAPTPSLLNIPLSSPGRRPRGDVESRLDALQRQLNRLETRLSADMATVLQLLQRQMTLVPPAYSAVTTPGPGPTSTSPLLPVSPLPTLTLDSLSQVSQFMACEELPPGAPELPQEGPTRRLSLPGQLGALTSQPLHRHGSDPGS
Procedure: The hERG K^+ channels were cloned in humans and stably expressed in a CHO (Chinese hamster ovary) cell line. CHOhERG cells were used for patch-clamp (voltage-clamp, whole-cell) experiments. Cells were stimulated by a voltage pattern to activate hERG channels and conduct IKhERG currents (rapid delayed outward rectifier potassium current of the hERG channel). After the cells were stabilized for a few minutes, the amplitude and kinetics of IKhERG were recorded at a stimulation frequency of 0.1 Hz (6 bpm). Thereafter, the test compound was added to the preparation at increasing concentrations. For each concentration, an attempt was made to reach a steady-state effect, usually, this was achieved within 3-10 min at which time the next highest concentration was applied. The amplitude and kinetics of IKhERG are recorded in each concentration of the drug which were compared to the control values (taken as 100%). (references: Redfern W S, Carlsson L, Davis A S, Lynch W G, MacKenzie I, Palethorpe S, Siegl P K, Strang I, Sullivan A T, Wallis R, Camm A J, Hammond T G. 2003; Relationships between preclinical cardiac electrophysiology, clinical QT interval prolongation and torsade de pointes for a broad range of drugs: evidence for a provisional safety margin in drug development. Cardiovasc. Res. 58:32-45, Sanguinetti M C, Tristani-Firouzi M. 2006; hERG potassium channels and cardiac arrhythmia. Nature 440:463-469, Webster R, Leishman D, Walker D. 2002; Towards a drug concentration effect relationship for QT prolongation and torsades de pointes. Curr. Opin. Drug Discov. Devel. 5:116-26).

TLR9 = TLR9 (Homo sapiens (Human), UniProt Q9NR96); assay: Human PBMC cell-based assay, TLR9; conditions: CpG ODN 2216 at 1 μM, overnight, cytokine readout, read-out: hPBMC/TLR9 IC50
Chain of TLR9 (Q9NR96 26-1032): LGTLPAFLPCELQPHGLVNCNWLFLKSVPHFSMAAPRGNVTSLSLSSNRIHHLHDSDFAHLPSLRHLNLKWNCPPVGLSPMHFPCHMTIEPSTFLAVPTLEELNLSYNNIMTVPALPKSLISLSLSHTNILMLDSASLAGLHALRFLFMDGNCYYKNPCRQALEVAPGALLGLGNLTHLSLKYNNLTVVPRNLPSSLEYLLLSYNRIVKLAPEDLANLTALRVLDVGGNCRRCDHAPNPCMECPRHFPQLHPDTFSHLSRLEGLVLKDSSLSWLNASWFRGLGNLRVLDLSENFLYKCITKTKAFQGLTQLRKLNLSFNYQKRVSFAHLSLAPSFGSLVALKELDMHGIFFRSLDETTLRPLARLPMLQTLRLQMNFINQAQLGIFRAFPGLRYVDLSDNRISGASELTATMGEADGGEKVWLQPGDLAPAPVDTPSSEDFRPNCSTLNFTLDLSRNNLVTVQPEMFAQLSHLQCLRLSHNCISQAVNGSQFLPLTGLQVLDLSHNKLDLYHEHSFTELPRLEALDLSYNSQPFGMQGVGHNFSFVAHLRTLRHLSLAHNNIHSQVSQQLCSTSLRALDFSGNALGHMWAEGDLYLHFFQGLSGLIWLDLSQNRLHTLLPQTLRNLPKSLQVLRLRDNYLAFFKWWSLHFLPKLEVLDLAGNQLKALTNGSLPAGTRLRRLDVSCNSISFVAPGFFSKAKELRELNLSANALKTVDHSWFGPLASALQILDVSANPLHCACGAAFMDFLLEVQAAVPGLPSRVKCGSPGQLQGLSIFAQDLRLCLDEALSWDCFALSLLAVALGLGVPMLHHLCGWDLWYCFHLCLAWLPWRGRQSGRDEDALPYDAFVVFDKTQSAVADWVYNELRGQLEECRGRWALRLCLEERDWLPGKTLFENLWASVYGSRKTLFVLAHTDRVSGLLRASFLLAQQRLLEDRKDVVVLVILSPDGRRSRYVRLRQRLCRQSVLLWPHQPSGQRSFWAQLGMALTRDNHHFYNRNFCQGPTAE
Excerpt: (§1) Unlike the HEK reporter cell lines, human peripheral blood mononuclear cell (PBMC) represents primary human immune cells in blood mainly consisting of lymphocytes, monocytes, and dendritic cells. These cells express TLR7, TLR8, or TLR9, and therefore are natural responders to respective ligand stimulation. Upon activation of these TLRs, PBMCs secrete similar cytokines and chemokines in vitro and in vivo, and therefore the in vitro potency of a TLR7/8/9 antagonist in human PBMC is readily translatable to its pharmacodynamics response in vivo.
(§2) Human peripheral blood mononuclear cells (PBMC) were isolated from freshly-drawn lithium-heparinized (Lithium Heparin Plus blood Collection tube, BD Vacutainer®) healthy donor whole blood by density gradient (Ficoll-Paque™ PLUS, GE Healthcare life Sciences). Briefly, […] was diluted with 25 mL PBS (without Ca^2+, Mg^2+) in a 50 mL conical tube with porous barrier (Leucosep tube, Greiner bio-one), where 15.5 mL Ficoll-Paque was under laid after spinning. Tubes were centrifuged for 20 minutes at 800×g (1946 rpm) with the brake in the off position, and PBMC were collected from the buffy coat. Cells were then washed twice in PBS, and red blood cells were lysed by suspension in 2 mL (Red Blood Cell Lysis Buffer, Alfa Aesar) for 5-10 minutes at room temperature. After a final wash in PBS, PBMC were resuspended at a final concentration of 2×10^6 cells/mL in RPMI-1640 media with GlutaMAX™ (Gibco) supplemented with 10% Fetal Bovine Serum (Sigma) and plated at 150 μL/well (3×10^5 cells/well) in tissue culture treated round bottom 96-well plates (Corning Incorporated). Antagonist compounds (compounds of this invention) solubilized and serial diluted in 100% DMSO were added in duplicate to cells to yield a final concentration of 1% DMSO (v/v). PBMC were incubated with antagonist compounds for 30 minutes at 37° C., 5% CO2 before adding various TLR agonist reagents in 48 μL complete media per well as follows (final concentrations indicated): CpG ODN 2216 (InvivoGen) at 1 μM for TLR9, ORN 06/LyoVec (InvivoGen) at 1 μg/mL for TLR8 and R848 (InvivoGen) at 1 μg/mL for TLR7 and TLR8. PBMC were incubated overnight at 37° C. with 5% CO2. Cell culture supernatants were collected, and levels of various human cytokines were assessed by Luminex assay (ProcartaPlex™ Multiplex Immunoassay, Invitrogen) or ELISA procedure according to the manufacturer's recommended protocol (eBioscience, ThermoFisher Scientific). Viability of the cells was also checked with Cell Viability Assay (CellTiter Glo®Luminescent Cell Viability Assay, Promega).

TLR7 and TLR8 = assay: Human PBMC cell-based assay, TLR7 and TLR8; conditions: R848 at 1 μg/mL, overnight, cytokine readout, read-out: hPBMC/TLR78 IC50
Excerpt: as §1
as §2, with “PBMC were incubated with antagonist compounds for 30 minutes at 37° C., 5% CO2 before adding various TLR agonist reagents in 48 μL complete media per well as follows (final concentrations indicated): CpG ODN 2216 (InvivoGen) at 1 μM for TLR9, ORN 06/LyoVec (InvivoGen) at 1 μg/mL for TLR8 and R848 (InvivoGen) at 1 μg/mL for TLR7 and TLR8. PBMC were incubated overnight at 37° C. with 5% CO2.” left out, “Viability of the cells was also checked with Cell Viability Assay (CellTiter Glo®Luminescent Cell Viability Assay, Promega).” left out

[1] = Single dose pharmacokinetics (PK) study in male Wister-Han rats; format: in vivo, rat
Procedure: Pharmacokinetic properties of selected compounds were assessed by single dose PK studies in Male Wister-Han Rats (vendor: Beijing Vital River Laboratory Animal Technology Co., Ltd). Briefly, two groups of animals were administered a single dose of respective compound intravenously (IV, bolus) at 2 mg/kg or orally (PO, by gavage) at 10 mg/kg. Blood samples (approximately 150 μL) were collected via Jugular vein at 5 min (only for IV), 15 min, 30 min, 1 h, 2 h, 4 h, 7 h and 24 h post-dose. Blood samples were placed into tubes containing EDTA-K2 anticoagulant and centrifuged at 3000 rpm for 15 min at 4° C. to separate plasma from the samples. After centrifugation, the resulting plasma was transferred to clean tubes for bioanalysis with LC/MS/MS. The pharmacokinetic parameters were calculated using non-compartmental analysis. The volume of distribution (VSS), half-life (T1/2) and clearance (CL) were obtained based on the plasma concentration-time curve after IV dose. The peak concentration (Cmax) was recorded directly from experimental observations after PO dose. The area under the plasma concentration-time curve (AUC0-last) was calculated using the linear trapezoidal rule up to the last detectable concentration. The bioavailability (F) was calculated based on the dose normalized AUC0-last after IV and PO dose.
The VSS of a drug represents the degree to which a drug is distributed in body tissue rather than the plasma. VSS is directly proportional with the amount of drug distributed into tissue. A higher VSS indicates a greater amount of tissue distribution.

| Compound | IC50 (TLR9) [nM] | IC50 (TLR7 and TLR8) [nM] | IC50 (hERG channel) [nM] | IC20 (hERG channel) [nM] | hERG IC20/TLR7 IC50 (hERG channel) | hERG IC20/TLR8 IC50 (hERG channel) | hERG IC20/TLR9 IC50 (hERG channel) | other results |
| --- | --- | --- | --- | --- | --- | --- | --- | --- |
| Cc1cn2cc(-c3ccc(N4CCC(N)CC4)nc3C(C)C)cc(C)c2n1 [Example 4, 1-[5-(2,8-dimethylimidazo[1,2-a]pyridin-6-yl)-6-isopropyl-2-pyridyl]piperidin-4-amine] | – | – | > 10000 | 4210 | 471.9 | 1448.2 | 27.2 | – |
| Cc1cc(-c2cc(C)c3nccn3c2)cnc1N1CCC(N2CCN(C)CC2)CC1 [Example 9, 8-methyl-6-[5-methyl-6-[4-(4-methylpiperazin-1-yl)-1-piperidyl]-3-pyridyl]imidazo[1,2-a]pyridine] | 500 | 8 | – | – | – | – | – | – |
| Cc1cc(-c2ccc(N3CCC(N4CCNCC4)CC3)nc2C(F)F)cn2ccnc12 [Example 10, 6-[2-(difluoromethyl)-6-(4-piperazin-1-yl-1-piperidyl)-3-pyridyl]-8-methyl-imidazo[1,2-a]pyridine] | – | – | – | – | – | – | – | F ([1]; dose normalized AUC0-last after IV 2 mg/kg and PO 10 mg/kg): 69%; AUC(0-t) ([1]; rat, IV 2 mg/kg, plasma, read-out: IV AUC0-last): 1060 ng·h/mL; Cmax ([1]; rat, PO 10 mg/kg, plasma): 257 ng/mL; AUC(0-t) ([1]; rat, PO 10 mg/kg, plasma, read-out: PO AUC0-last): 3640 ng·h/mL; clearance ([1]; rat, plasma, IV 2 mg/kg): 28 mL/min/kg; half-life ([1]; rat, plasma, IV 2 mg/kg): 8.6 h; Vd ([1]; rat, plasma, IV 2 mg/kg, read-out: Vss): 15 L/kg |
| Cc1cn2cc(-c3ccc(N4CCC(N5CC(C)(N)C5)CC4)nc3C(F)F)cc(C)c2n1 [Example 12, 1-[1-[6-(difluoromethyl)-5-(2,8-dimethylimidazo[1,2-a]pyridin-6-yl)-2-pyridyl]-4-piperidyl]-3-methyl-azetidin-3-amine] | 290 | 16 | – | – | – | – | – | – |
| CCc1nc(N2CCC(C)(N)CC2)ccc1-c1cc(C)c2nc(C)cn2c1 [Example 20, 1-[5-(2,8-dimethylimidazo[1,2-a]pyridin-6-yl)-6-ethyl-2-pyridyl]-4-methyl-piperidin-4-amine] | 500 | – | > 20000 | > 10000 | >1666.7 | >636.9 | >44.2 | – |
| COc1nc(N2CCC(N3CCNCC3)CC2)ccc1-c1cc(C)c2nccn2c1 [Example 25, 6-[2-methoxy-6-(4-piperazin-1-yl-1-piperidyl)-3-pyridyl]-8-methyl-imidazo[1,2-a]pyridine] | 130 | 4.5 | > 20000 | 5780 | 837.6 | 516.0 | 62.8 | – |

Second part, led by results:

| IC50 (TLR9) [nM] | IC50 (TLR7 and TLR8) [nM] | Compound | IC50 (hERG channel) [nM] | IC20 (hERG channel) [nM] | hERG IC20/TLR7 IC50 (hERG channel) | hERG IC20/TLR8 IC50 (hERG channel) | hERG IC20/TLR9 IC50 (hERG channel) | other results |
| --- | --- | --- | --- | --- | --- | --- | --- | --- |
| 250 | – | CCc1nc(N2CCC(N3CC4(CNCCO4)C3)CC2)ccc1-c1cc(C)c2nccn2c1 [Example 14, 2-[1-[6-ethyl-5-(8-methylimidazo[1,2-a]pyridin-6-yl)-2-pyridyl]-4-piperidyl]-5-oxa-2,8-diazaspiro[3.5]nonane] | – | – | – | – | – | – |
| 470 | – | CCc1nc(N2CCC(N3C[C@@H](N)[C@H](OC)C3)CC2)ccc1-c1cc(C)c2nccn2c1 [Example 15, (3R,4R)-1-[1-[6-ethyl-5-(8-methylimidazo[1,2-a]pyridin-6-yl)-2-pyridyl]-4-piperidyl]-4-methoxy-pyrrolidin-3-amine] | > 20000 | 8360 | 2144.2 | 2090 | 38.7 | – |
| 100 | – | CCc1nc(N2CCC(N3C[C@@H](N)[C@H](OC)C3)CC2)ccc1-c1cc(C)c2nc(C)cn2c1 [Example 17, (3R,4R)-1-[1-[5-(2,8-dimethylimidazo[1,2-a]pyridin-6-yl)-6-ethyl-2-pyridyl]-4-piperidyl]-4-methoxy-pyrrolidin-3-amine] | – | – | – | – | – | – |
